Source: patent US12383545B1, “Treatment of migraine” (priority 2018, dated 2025)

System: ALT or AST
Assay: Example 5: postbaseline hepatic laboratory parameter values of clinical interest
Format: in vivo, human
Conditions: safety population; for Participants with Concurrent Elevations ALT or AST >=3 * ULN AND Bilirubin Total >=1.5 * ULN, n/N1 / Participants with Concurrent Elevations ALT or AST >=3 * ULN AND Bilirubin Total >=2 * ULN, n/N1 / Participants with Potential Hy's Law ALT or AST >=3 * ULN AND Bilirubin Total >=2 * ULN AND ALP <2 * ULN, n/N1: same day
Description: In a multicenter, randomized, double-blind, placebo-controlled, parallel-group study designed to evaluate the efficacy, safety, and tolerability of multiple doses and doses regimens of atogepant for the prevention of migraine. The patients were randomized (2:1:2:1:2:1) to 1 of 6 treatment groups: placebo, atogepant 10 mg QD, atogepant 30 mg QD, atogepant 30 mg BID, atogepant 60 mg QD, and atogepant 60 mg BID.
A total of 834 patients were randomized to double-blind treatment (ITT population), and 825 patients took at least 1 dose of double-blind IP (safety population). […] The primary efficacy variable was the change from baseline in mean monthly migraine/probable migraine headache days across the 12-week treatment period. The secondary efficacy variables were the change from baseline in mean monthly headache days across the 12-week treatment period, proportion of patients with at least a 50% reduction in mean monthly migraine/probable migraine headache days across the 12-week treatment period, and the change from baseline in mean monthly acute medication use days across the 12-week treatment period.

SMILES: C[C@@H]1[C@H](c2c(F)ccc(F)c2F)C[C@H](NC(=O)c2cnc3c(c2)C[C@@]2(C3)C(=O)Nc3ncccc32)C(=O)N1CC(F)(F)F [atogepant]
- Participants with postbaseline ALT or AST (U/L) >=5 * ULN, n/N1 (Atogepant 30 mg BID (N = 86)): 0
- Participants with postbaseline ALT or AST (U/L) >=10 * ULN, n/N1 (Atogepant 30 mg BID (N = 86)): 0
- Participants with postbaseline ALT or AST (U/L) >=20 * ULN, n/N1 (Atogepant 30 mg BID (N = 86)): 0
- Participants with Concurrent Elevations ALT or AST >=3 * ULN AND Bilirubin Total >=1.5 * ULN, n/N1 (Atogepant 30 mg BID (N = 86)): 0
- Participants with Concurrent Elevations ALT or AST >=3 * ULN AND Bilirubin Total >=2 * ULN, n/N1 (Atogepant 30 mg BID (N = 86)): 0
- Participants with Potential Hy's Law ALT or AST >=3 * ULN AND Bilirubin Total >=2 * ULN AND ALP <2 * ULN, n/N1 (Atogepant 30 mg BID (N = 86)): 0
- Participants with postbaseline ALT or AST (U/L) >=1 * ULN, (%) (Atogepant 30 mg QD (N = 183)): (17.8) %
- Participants with postbaseline ALT or AST (U/L) >=1 * ULN, n/N1 (Atogepant 30 mg QD (N = 183)): 32/180
- Participants with postbaseline ALT or AST (U/L) >=1.5 * ULN, (%) (Atogepant 30 mg QD (N = 183)): (7.2) %
- Participants with postbaseline ALT or AST (U/L) >=1.5 * ULN, n/N1 (Atogepant 30 mg QD (N = 183)): 13/180
- Participants with postbaseline ALT or AST (U/L) >=2 * ULN, (%) (Atogepant 30 mg QD (N = 183)): (3.3) %
- Participants with postbaseline ALT or AST (U/L) >=2 * ULN, n/N1 (Atogepant 30 mg QD (N = 183)): 6/180
- Participants with postbaseline ALT or AST (U/L) >=3 * ULN, (%) (Atogepant 30 mg QD (N = 183)): (0.6) %
- Participants with postbaseline ALT or AST (U/L) >=3 * ULN, n/N1 (Atogepant 30 mg QD (N = 183)): 1/180
- Participants with postbaseline ALT or AST (U/L) >=5 * ULN, n/N1 (Atogepant 30 mg QD (N = 183)): 0
- Participants with postbaseline ALT or AST (U/L) >=10 * ULN, n/N1 (Atogepant 30 mg QD (N = 183)): 0
- Participants with postbaseline ALT or AST (U/L) >=20 * ULN, n/N1 (Atogepant 30 mg QD (N = 183)): 0
- Participants with Concurrent Elevations ALT or AST >=3 * ULN AND Bilirubin Total >=1.5 * ULN, n/N1 (Atogepant 30 mg QD (N = 183)): 0
- Participants with Concurrent Elevations ALT or AST >=3 * ULN AND Bilirubin Total >=2 * ULN, n/N1 (Atogepant 30 mg QD (N = 183)): 0
- Participants with Potential Hy's Law ALT or AST >=3 * ULN AND Bilirubin Total >=2 * ULN AND ALP <2 * ULN, n/N1 (Atogepant 30 mg QD (N = 183)): 0
- Participants with postbaseline ALT or AST (U/L) >=1 * ULN, (%) (Atogepant 60 mg BID (N = 91)): (10.2) %
- Participants with postbaseline ALT or AST (U/L) >=1 * ULN, n/N1 (Atogepant 60 mg BID (N = 91)): 9/88
- Participants with postbaseline ALT or AST (U/L) >=1.5 * ULN, (%) (Atogepant 60 mg BID (N = 91)): (1.1) %
- Participants with postbaseline ALT or AST (U/L) >=1.5 * ULN, n/N1 (Atogepant 60 mg BID (N = 91)): 1/88
- Participants with postbaseline ALT or AST (U/L) >=2 * ULN, (%) (Atogepant 60 mg BID (N = 91)): (1.1) %
- Participants with postbaseline ALT or AST (U/L) >=2 * ULN, n/N1 (Atogepant 60 mg BID (N = 91)): 1/88
- Participants with postbaseline ALT or AST (U/L) >=3 * ULN, (%) (Atogepant 60 mg BID (N = 91)): (1.1) %
- Participants with postbaseline ALT or AST (U/L) >=3 * ULN, n/N1 (Atogepant 60 mg BID (N = 91)): 1/88
- Participants with postbaseline ALT or AST (U/L) >=5 * ULN, n/N1 (Atogepant 60 mg BID (N = 91)): 0
- Participants with postbaseline ALT or AST (U/L) >=10 * ULN, n/N1 (Atogepant 60 mg BID (N = 91)): 0
- Participants with postbaseline ALT or AST (U/L) >=20 * ULN, n/N1 (Atogepant 60 mg BID (N = 91)): 0
- Participants with Concurrent Elevations ALT or AST >=3 * ULN AND Bilirubin Total >=1.5 * ULN, n/N1 (Atogepant 60 mg BID (N = 91)): 0
- Participants with Concurrent Elevations ALT or AST >=3 * ULN AND Bilirubin Total >=2 * ULN, n/N1 (Atogepant 60 mg BID (N = 91)): 0
- Participants with Potential Hy's Law ALT or AST >=3 * ULN AND Bilirubin Total >=2 * ULN AND ALP <2 * ULN, n/N1 (Atogepant 60 mg BID (N = 91)): 0
- Participants with postbaseline ALT or AST (U/L) >=1 * ULN, (%) (Atogepant 60 mg QD (N = 186)): (13.8) %
- Participants with postbaseline ALT or AST (U/L) >=1 * ULN, n/N1 (Atogepant 60 mg QD (N = 186)): 25/181
- Participants with postbaseline ALT or AST (U/L) >=1.5 * ULN, (%) (Atogepant 60 mg QD (N = 186)): (4.4) %
- Participants with postbaseline ALT or AST (U/L) >=1.5 * ULN, n/N1 (Atogepant 60 mg QD (N = 186)): 8/181
- Participants with postbaseline ALT or AST (U/L) >=2 * ULN, (%) (Atogepant 60 mg QD (N = 186)): (2.8) %
- Participants with postbaseline ALT or AST (U/L) >=2 * ULN, n/N1 (Atogepant 60 mg QD (N = 186)): 5/181
- Participants with postbaseline ALT or AST (U/L) >=3 * ULN, (%) (Atogepant 60 mg QD (N = 186)): (1.7) %
- Participants with postbaseline ALT or AST (U/L) >=3 * ULN, n/N1 (Atogepant 60 mg QD (N = 186)): 3/181
- Participants with postbaseline ALT or AST (U/L) >=5 * ULN, (%) (Atogepant 60 mg QD (N = 186)): (0.6) %
- Participants with postbaseline ALT or AST (U/L) >=5 * ULN, n/N1 (Atogepant 60 mg QD (N = 186)): 1/181
- Participants with postbaseline ALT or AST (U/L) >=10 * ULN, n/N1 (Atogepant 60 mg QD (N = 186)): 0
- Participants with postbaseline ALT or AST (U/L) >=20 * ULN, n/N1 (Atogepant 60 mg QD (N = 186)): 0
- Participants with Concurrent Elevations ALT or AST >=3 * ULN AND Bilirubin Total >=1.5 * ULN, n/N1 (Atogepant 60 mg QD (N = 186)): 0
- Participants with Concurrent Elevations ALT or AST >=3 * ULN AND Bilirubin Total >=2 * ULN, n/N1 (Atogepant 60 mg QD (N = 186)): 0
- Participants with Potential Hy's Law ALT or AST >=3 * ULN AND Bilirubin Total >=2 * ULN AND ALP <2 * ULN, n/N1 (Atogepant 60 mg QD (N = 186)): 0
